Tests used:
[1] = molecular target: T1, Glucocorticoid receptor (Homo sapiens, UniProt P04150)
T1 sequence (P04150 whole entry): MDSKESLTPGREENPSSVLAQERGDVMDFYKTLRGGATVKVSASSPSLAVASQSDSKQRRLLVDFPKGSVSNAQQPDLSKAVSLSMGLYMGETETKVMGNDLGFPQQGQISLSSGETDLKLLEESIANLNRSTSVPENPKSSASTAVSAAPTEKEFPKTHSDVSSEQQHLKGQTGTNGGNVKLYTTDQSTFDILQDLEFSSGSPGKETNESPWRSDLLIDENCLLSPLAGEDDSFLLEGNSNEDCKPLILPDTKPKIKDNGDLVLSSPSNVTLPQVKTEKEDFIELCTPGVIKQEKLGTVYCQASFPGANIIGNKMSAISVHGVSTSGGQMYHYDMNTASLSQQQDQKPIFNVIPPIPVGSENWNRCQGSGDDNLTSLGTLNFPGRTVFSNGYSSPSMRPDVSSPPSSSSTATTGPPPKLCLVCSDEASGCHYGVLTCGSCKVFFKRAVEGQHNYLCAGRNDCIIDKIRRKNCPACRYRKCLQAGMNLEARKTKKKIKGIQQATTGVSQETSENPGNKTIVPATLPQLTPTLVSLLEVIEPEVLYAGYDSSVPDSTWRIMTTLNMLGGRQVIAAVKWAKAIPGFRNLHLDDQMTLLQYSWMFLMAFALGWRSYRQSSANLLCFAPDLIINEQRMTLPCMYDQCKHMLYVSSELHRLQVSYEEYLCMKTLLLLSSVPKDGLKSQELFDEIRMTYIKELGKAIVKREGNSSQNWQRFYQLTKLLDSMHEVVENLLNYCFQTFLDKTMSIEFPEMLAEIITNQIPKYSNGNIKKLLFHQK
Description: Displacement of fluorescent labelled Dexamethasone from glucocorticoid receptor

[2] = Inhibition of TNF-induced NF-kappaB activation in human A549 cells after 15 hrs; conditions: for IC50: Homo sapiens, A549, 15 h, read-out: pIC50 (converted); for pIC50: a549
[3] = molecular target: T1, Glucocorticoid receptor; remark: listed apart in the source
Description: Agonist activity at human glucocorticoid receptor in human A549 cells assessed as transcriptional activity by MMTV luciferase reporter gene assay

[4] = test system: A549; assay: Inhibition of TNF-induced NFkappaB activation in human A549 cells after 15 hrs relative to Dexamethasone; format: cell-based; design: scale not given: the % may be the effect or the level left
[5] = molecular target: Cytochrome P450 3A4 (Homo sapiens, UniProt P08684)
[6] = molecular target: Cytochrome P450 2C19 (Homo sapiens, UniProt P33261); assay: Inhibition of CYP2C19; format: ADME
[7] = molecular target: Cytochrome P450 2D6 (Homo sapiens, UniProt P10635); assay: Inhibition of CYP2D6; format: ADME
[8] = molecular target: T2, Cytochrome P450 1A2 (Homo sapiens, UniProt P05177); assay: Inhibition of CYP1A2; format: ADME
T2 sequence (P05177 whole entry): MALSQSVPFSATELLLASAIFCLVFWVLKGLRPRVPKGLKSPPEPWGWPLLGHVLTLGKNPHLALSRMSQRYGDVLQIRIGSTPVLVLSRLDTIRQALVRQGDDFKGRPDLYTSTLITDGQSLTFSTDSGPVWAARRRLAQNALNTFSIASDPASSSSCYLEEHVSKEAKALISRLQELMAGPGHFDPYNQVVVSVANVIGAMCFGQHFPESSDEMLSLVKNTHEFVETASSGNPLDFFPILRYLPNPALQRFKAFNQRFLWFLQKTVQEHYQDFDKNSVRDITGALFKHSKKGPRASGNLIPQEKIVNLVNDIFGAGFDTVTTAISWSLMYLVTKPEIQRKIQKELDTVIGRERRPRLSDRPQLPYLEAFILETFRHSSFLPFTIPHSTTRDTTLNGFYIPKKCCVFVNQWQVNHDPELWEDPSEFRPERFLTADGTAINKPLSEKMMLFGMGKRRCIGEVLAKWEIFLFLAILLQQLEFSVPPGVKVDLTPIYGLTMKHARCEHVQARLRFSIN

[9] = molecular target: Cytochrome P450 2C9 (Homo sapiens, UniProt P11712); assay: Inhibition of CYP2C9; format: ADME
[10] = molecular target: Albumin (Homo sapiens, UniProt P02768); assay: Binding affinity to human serum albumin by fast gradient HPLC; format: ADME; conditions: isolated protein
[11] = Volume of distribution at steady state in Sprague-Dawley rat at 1 mg/kg, iv and 1 mg/kg, po; format: ADME, organism-based; conditions: in vivo, read-out: Vdss
[12] = Oral bioavailability in Sprague-Dawley rat at 1 mg/kg; format: ADME, organism-based; conditions: in vivo
[13] = Clearance in Sprague-Dawley rat at 1 mg/kg, iv and 1 mg/kg, po; format: ADME, organism-based; conditions: in vivo
[14] = Protein binding in human plasma by ultrafiltration; format: ADME, cell-free; conditions: read-out: PPB (converted)

Sequence of Cytochrome P450 2D6 (P10635 whole entry): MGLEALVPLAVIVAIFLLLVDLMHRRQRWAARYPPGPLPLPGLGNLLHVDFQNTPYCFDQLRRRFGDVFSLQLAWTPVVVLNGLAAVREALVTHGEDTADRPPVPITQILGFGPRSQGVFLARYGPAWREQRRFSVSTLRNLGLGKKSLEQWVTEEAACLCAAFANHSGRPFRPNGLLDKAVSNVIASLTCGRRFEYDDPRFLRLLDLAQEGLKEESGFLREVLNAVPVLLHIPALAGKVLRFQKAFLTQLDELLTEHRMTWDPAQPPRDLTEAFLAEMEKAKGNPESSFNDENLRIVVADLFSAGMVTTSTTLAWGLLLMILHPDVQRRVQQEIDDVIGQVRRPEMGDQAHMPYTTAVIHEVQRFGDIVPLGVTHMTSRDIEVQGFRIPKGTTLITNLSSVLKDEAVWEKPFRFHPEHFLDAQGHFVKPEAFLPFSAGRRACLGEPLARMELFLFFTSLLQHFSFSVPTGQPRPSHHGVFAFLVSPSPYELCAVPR
Sequence of Cytochrome P450 3A4 (P08684 whole entry): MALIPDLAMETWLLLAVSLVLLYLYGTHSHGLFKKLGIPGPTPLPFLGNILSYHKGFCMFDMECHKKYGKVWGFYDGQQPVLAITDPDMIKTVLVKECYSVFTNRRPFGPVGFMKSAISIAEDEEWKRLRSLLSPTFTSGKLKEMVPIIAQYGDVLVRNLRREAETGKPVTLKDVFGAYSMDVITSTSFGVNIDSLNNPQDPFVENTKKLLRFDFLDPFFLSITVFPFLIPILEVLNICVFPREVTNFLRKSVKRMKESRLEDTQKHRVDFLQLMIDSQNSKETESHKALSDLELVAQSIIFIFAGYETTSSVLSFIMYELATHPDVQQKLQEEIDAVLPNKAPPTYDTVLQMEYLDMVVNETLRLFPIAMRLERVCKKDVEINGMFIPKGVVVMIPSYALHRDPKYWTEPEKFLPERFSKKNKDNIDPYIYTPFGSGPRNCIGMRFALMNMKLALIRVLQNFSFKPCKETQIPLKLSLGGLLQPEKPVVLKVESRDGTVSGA
Sequence of Albumin (P02768 whole entry): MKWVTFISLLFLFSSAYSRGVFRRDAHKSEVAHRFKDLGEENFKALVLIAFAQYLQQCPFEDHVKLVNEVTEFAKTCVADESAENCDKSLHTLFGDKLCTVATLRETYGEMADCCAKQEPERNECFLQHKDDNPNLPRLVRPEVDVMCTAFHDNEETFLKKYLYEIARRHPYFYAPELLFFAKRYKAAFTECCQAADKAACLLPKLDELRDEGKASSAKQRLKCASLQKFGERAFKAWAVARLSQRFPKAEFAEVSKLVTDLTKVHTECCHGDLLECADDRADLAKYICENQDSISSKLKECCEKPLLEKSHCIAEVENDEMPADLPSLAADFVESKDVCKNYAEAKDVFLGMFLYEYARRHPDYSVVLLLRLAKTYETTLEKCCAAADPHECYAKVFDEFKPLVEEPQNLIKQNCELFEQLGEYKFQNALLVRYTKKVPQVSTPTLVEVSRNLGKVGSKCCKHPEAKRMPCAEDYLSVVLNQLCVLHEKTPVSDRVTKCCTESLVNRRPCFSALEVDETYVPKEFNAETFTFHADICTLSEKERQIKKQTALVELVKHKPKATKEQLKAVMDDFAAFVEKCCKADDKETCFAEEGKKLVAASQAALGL
Sequence of Cytochrome P450 2C19 (P33261 whole entry): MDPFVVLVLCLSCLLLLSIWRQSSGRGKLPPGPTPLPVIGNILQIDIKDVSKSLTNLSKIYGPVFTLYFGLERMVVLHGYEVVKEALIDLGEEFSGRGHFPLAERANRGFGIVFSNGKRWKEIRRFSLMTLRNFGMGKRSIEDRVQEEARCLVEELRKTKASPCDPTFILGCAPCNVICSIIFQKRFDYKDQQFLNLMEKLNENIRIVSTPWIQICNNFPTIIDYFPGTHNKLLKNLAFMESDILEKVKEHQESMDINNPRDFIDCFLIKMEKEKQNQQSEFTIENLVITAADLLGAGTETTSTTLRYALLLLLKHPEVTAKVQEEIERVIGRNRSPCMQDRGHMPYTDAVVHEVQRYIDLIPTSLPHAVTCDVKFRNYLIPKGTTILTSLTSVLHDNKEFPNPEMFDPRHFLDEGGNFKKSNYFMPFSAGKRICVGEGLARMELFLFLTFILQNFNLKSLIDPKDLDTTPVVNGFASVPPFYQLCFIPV
Sequence of Cytochrome P450 2C9 (P11712 whole entry): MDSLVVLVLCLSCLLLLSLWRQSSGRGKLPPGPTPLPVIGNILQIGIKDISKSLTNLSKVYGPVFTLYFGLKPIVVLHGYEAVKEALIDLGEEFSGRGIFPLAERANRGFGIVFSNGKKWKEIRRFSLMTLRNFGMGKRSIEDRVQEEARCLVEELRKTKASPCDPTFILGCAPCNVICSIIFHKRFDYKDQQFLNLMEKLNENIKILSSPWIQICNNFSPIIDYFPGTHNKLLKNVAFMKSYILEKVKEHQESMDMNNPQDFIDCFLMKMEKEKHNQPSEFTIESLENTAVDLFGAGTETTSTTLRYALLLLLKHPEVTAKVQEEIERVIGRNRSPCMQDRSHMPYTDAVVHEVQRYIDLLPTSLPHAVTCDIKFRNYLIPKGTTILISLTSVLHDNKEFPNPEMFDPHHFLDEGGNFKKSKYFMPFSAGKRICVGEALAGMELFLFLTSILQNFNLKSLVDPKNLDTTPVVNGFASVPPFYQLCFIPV

Row | Compound | IC50 [1] [nM] | IC50 [2] [nM] | EC50 [3] [nM] | Activity [4] [%] | further results
1 | CCN(CC(O)(CNC(=O)c1cnn(-c2ccc(F)cc2)c1N)C(F)(F)F)C(=O)c1ccc(F)cc1Cl (racemic) | 20 | 100 | 316 | 76 | 
2 | CCN(CC(O)(CNC(=O)c1cnn(-c2ccc(F)cc2)c1N)C(F)(F)F)C(=O)c1ccccc1 (stereo in doubt; 13c) [listing 1 of 2 here] | 12.6 |  | 25.1 |  | pIC50 [2]: 8
3 | CN(CC(O)(CNC(=O)c1cnn(-c2ccc(F)cc2)c1N)C(F)(F)F)C(=O)c1c(F)cccc1F (racemic) | 79.4 | 50.1 | 251 | 95 | IC50 [5]: 100 µM; IC50 [6]: 49 µM; IC50 [7]: 36 µM; IC50 [8]: 100 µM; IC50 [9]: 10 µM
4 | CCN(CC(O)(CNC(=O)c1cnn(-c2ccc(F)cc2)c1N)C(F)(F)F)C(=O)c1ccccc1S(C)(=O)=O (stereo not given) [listing 1 of 2 here] | 63.1 | 20 | 158 |  | IC50 [6]: 87 µM; Activity [10]: 81%; IC50 [7]: 96 µM; IC50 [8]: > 40 µM; IC50 [9]: 23 µM
5 | CCN(CC(O)(CNC(=O)c1cnn(-c2ccc(F)cc2)c1N)C(F)(F)F)C(=O)c1ccccc1Cl (stereo in doubt; 13d) [listing 1 of 2 here] |  |  |  |  | IC50 [5]: 2 µM; IC50 [6]: 8 µM; IC50 [7]: 27 µM; IC50 [8]: 100 µM; IC50 [9]: 4 µM
6 | CCN(CC(O)(CNC(=O)c1cnn(-c2ccc(F)cc2)c1N)C(F)(F)F)C(=O)c1ccccc1Cl (racemic) |  |  |  |  | Vd [11]: 4 L/kg; bioavailability [12]: 25%; clearance [13]: 32 mL/min/kg
7 | CCN(CC(O)(CNC(=O)c1cnn(-c2ccc(F)cc2)c1N)C(F)(F)F)C(=O)c1ccccc1S(C)(=O)=O (stereo not given) [listing 2 of 2 here] |  |  |  | 99 | 
8 | CCN(CC(O)(CNC(=O)c1cnn(-c2ccc(F)cc2)c1N)C(F)(F)F)C(=O)c1ncccc1Cl (stereo not given) [listing 1 of 2 here] |  | 10 |  |  | IC50 [5]: 4 µM; IC50 [6]: 100 µM; fraction unbound [14]: 0.15; Activity [10]: 83%; IC50 [7]: 100 µM; IC50 [8]: 100 µM; IC50 [9]: 14 µM
9 | CCN(CC(O)(CNC(=O)c1cnn(-c2ccc(F)cc2)c1N)C(F)(F)F)C(=O)c1ccccc1Cl (stereo in doubt; 13e) [listing 1 of 2 here] |  |  |  |  | IC50 [5]: 4 µM; IC50 [6]: 20 µM; IC50 [7]: 34 µM; IC50 [8]: 100 µM; IC50 [9]: 10 µM
10 | CCN(CC(O)(CNC(=O)c1cnn(-c2ccc(F)cc2)c1N)C(F)(F)F)C(=O)c1cccc(F)c1Cl (racemic) | 7.94 | 20 | 50.1 | 92 | 
11 | CCN(CC(O)(CNC(=O)c1cnn(-c2ccc(F)cc2)c1N)C(F)(F)F)C(=O)c1ccccc1F (stereo not given) | 12.6 | 12.6 | 20 | 98 | 
12 | Nc1c(C(=O)NCC(O)(CN(CCF)C(=O)c2c(F)cccc2F)C(F)(F)F)cnn1-c1ccc(F)cc1 (racemic) | 20 | 10 | 50.1 | 94 | IC50 [5]: 0.5 µM; IC50 [6]: 8 µM; fraction unbound [14]: 0.07; Vd [11]: 2.6 L/kg; Activity [10]: 93%; IC50 [7]: 20 µM; bioavailability [12]: 39%; IC50 [8]: 100 µM; IC50 [9]: 4 µM; clearance [13]: 21 mL/min/kg
13 | CCN(CC(O)(CNC(=O)c1cnn(-c2ccc(F)cc2)c1N)C(F)(F)F)C(=O)c1ccc2[nH]ccc2c1 (stereo not given) | 6.31 | 1 | 3.16 | 100 | 
14 | CCN(CC(O)(CNC(=O)c1cnn(-c2ccc(F)cc2)c1N)C(F)(F)F)C(=O)c1ncccc1Cl (racemic) |  |  |  |  | Vd [11]: 2.8 L/kg; bioavailability [12]: 48%; clearance [13]: 23 mL/min/kg
15 | CCN(CC(O)(CNC(=O)c1cnn(-c2ccc(F)cc2)c1N)C(F)(F)F)C(=O)c1ccccc1Cl (stereo in doubt; 13d) [listing 2 of 2 here] |  |  |  | 95 | 
16 | CCN(CC(O)(CNC(=O)c1cnn(-c2ccc(F)cc2)c1N)C(F)(F)F)C(=O)c1cccnc1Cl (racemic) | 39.8 | 251 | 794 | 75 | 

Row | Compound | IC50 [1] [nM] | IC50 [2] [nM] | EC50 [3] [nM] | Activity [4] [%] | further results
17 | CCN(CC(O)(CNC(=O)c1cnn(-c2ccc(F)cc2)c1N)C(F)(F)F)C(=O)c1ccccc1 (racemic) [listing 1 of 2 here] |  |  |  | 88 | 
18 | CCCN(CC(O)(CNC(=O)c1cnn(-c2ccc(F)cc2)c1N)C(F)(F)F)C(=O)c1c(F)cccc1F (racemic) | 15.8 | 15.8 | 25.1 | 96 | Vd [11]: 5.3 L/kg; bioavailability [12]: 16%; clearance [13]: 36 mL/min/kg
19 | CCN(CC(O)(CNC(=O)c1cnn(-c2ccc(F)cc2)c1N)C(F)(F)F)C(=O)c1ccc(Cl)cc1 (racemic) | 316 | > 10000 | > 6310 |  | 
20 | Nc1c(C(=O)NCC(O)(CNC(=O)c2c(F)cccc2F)C(F)(F)F)cnn1-c1ccc(F)cc1 (racemic) | 398 | 316 | > 6310 | 80 | 
21 | CCN(CC(O)(CNC(=O)c1cnn(-c2ccc(F)cc2)c1N)C(F)(F)F)C(=O)c1ccccc1S(C)(=O)=O (racemic) |  |  |  |  | Vd [11]: 3.6 L/kg; bioavailability [12]: 77%; clearance [13]: 17 mL/min/kg
22 | CCN(CC(O)(CNC(=O)c1cnn(-c2ccc(F)cc2)c1N)C(F)(F)F)C(=O)c1ccccc1 (stereo in doubt; 13c) [listing 2 of 2 here] |  |  |  | 94 | 
23 | CCN(CC(O)(CNC(=O)c1cnn(-c2ccc(F)cc2)c1N)C(F)(F)F)C(=O)c1ccccc1 (racemic) [listing 2 of 2 here] | 50.1 |  | 50.1 |  | pIC50 [2]: 7.3; Vd [11]: 2.5 L/kg; bioavailability [12]: 12%; clearance [13]: 21 mL/min/kg
24 | C[C@]12C=CC(=O)C=C1CC[C@@H]1[C@@H]2[C@@H](O)C[C@@]2(C)[C@H]1CC[C@]2(O)C(=O)CO [PREDNISOLONE] |  | 10 |  | 100 | 
25 | CCN(CC(O)(CNC(=O)c1cnn(-c2ccc(F)cc2)c1N)C(F)(F)F)C(=O)c1ccccc1Cl (stereo in doubt; 13e) [listing 2 of 2 here] |  |  |  | 75 | 
26 | CCN(CC(O)(CNC(=O)c1cnn(-c2ccc(F)cc2)c1N)C(F)(F)F)C(=O)c1ncccc1Cl (stereo not given) [listing 2 of 2 here] |  |  |  | 99 | 
27 | CCN(CC(O)(CNC(=O)c1cnn(-c2ccc(F)cc2)c1N)C(F)(F)F)C(=O)c1c(Cl)cccc1Cl (stereo not given) | 3.16 | 0.501 | 2 | 101 | IC50 [5]: 0.7 µM; IC50 [6]: 7 µM; fraction unbound [14]: 0.01; Activity [10]: 95%; IC50 [7]: 89 µM; IC50 [8]: 100 µM; IC50 [9]: 0.8 µM
28 | Nc1c(C(=O)NCC(O)(CN(CCO)C(=O)c2c(Cl)cccc2Cl)C(F)(F)F)cnn1-c1ccc(F)cc1 (stereo not given) |  |  |  |  | IC50 [5]: 100 µM; IC50 [6]: 20 µM; fraction unbound [14]: 0.07; Activity [10]: 89%; IC50 [7]: 54 µM; IC50 [8]: 100 µM; IC50 [9]: 3 µM
29 | CCN(CC(O)(CNC(=O)c1cnn(-c2ccc(F)cc2)c1N)C(F)(F)F)C(=O)c1c(Cl)cc(Cl)cc1Cl (racemic) | 6.31 | 25.1 | 50.1 | 100 | 
30 | CCN(CC(O)(CNC(=O)c1cnn(-c2ccc(F)cc2)c1N)C(F)(F)F)C(=O)c1ccccc1 (stereo in doubt; 13b) | 126 |  | > 6310 |  | pIC50 [2]: < 5
31 | CCN(CC(O)(CNC(=O)c1cnn(-c2ccc(F)cc2)c1N)C(F)(F)F)C(=O)c1c(F)cccc1S(C)(=O)=O (racemic) | 50.1 | 10 | 25.1 | 103 | Vd [11]: 2.6 L/kg; bioavailability [12]: 62%; clearance [13]: 9 mL/min/kg
32 | CCN(CC(O)(CNC(=O)c1cnn(-c2ccc(F)cc2)c1N)C(F)(F)F)C(=O)c1cccc(Cl)c1 (racemic) | 15.8 | 31.6 | 251 | 96 | 

— ChEMBL document CHEMBL1139273, “Aryl aminopyrazole benzamides as oral non-steroidal selective glucocorticoid receptor agonists” (Bioorg Med Chem Lett, 2009)
